Data on 1 molecule can be found in article PMC546329, “SIRT1 Regulates HIV Transcription via Tat Deacetylation” (PLoS Biology, 2005).

This test addresses T1, SIRT1 (Homo sapiens, UniProt Q96EB6).
T1 construct: FLAG-tagged SIRT1 immunoprecipitated from HEK 293 cells
T1 sequence (Q96EB6 2-747): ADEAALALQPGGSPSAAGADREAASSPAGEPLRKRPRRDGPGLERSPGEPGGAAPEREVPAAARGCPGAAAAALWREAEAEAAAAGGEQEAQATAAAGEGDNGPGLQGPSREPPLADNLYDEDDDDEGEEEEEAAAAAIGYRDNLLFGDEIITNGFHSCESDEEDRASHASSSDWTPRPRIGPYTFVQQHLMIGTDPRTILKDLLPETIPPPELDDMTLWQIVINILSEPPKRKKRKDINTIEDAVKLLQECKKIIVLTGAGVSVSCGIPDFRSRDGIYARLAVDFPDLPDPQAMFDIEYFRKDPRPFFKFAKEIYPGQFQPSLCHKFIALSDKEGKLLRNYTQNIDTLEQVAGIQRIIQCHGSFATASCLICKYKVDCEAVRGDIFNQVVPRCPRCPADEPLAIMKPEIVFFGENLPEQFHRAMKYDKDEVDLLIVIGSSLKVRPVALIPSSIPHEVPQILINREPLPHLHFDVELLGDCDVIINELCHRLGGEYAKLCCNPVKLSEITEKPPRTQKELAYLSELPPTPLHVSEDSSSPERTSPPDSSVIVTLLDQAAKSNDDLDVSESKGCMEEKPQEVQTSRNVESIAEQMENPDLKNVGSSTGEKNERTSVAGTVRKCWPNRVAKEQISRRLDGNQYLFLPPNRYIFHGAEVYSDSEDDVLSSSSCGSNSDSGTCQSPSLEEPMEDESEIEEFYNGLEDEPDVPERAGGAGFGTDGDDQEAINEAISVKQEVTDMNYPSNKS
As to the kind of experiment: deacetylation of synthetic acetylated Tat by immunoprecipitated SIRT1 with or without […] NAD+, Western blot. The test is classed as biochemical. (In general: A western blot detects proteins with antibodies after separation by electrophoresis.)

Turning to `NC(=O)c1ccc[n+]([C@@H]2O[C@H](COP(=O)([O-])OP(=O)(O)OC[C@H]3O[C@@H](n4cnc5c(N)ncnc54)[C@H](O)[C@@H]3O)[C@@H](O)[C@H]2O)c1` [NAD^+], the “deacetylation of synthetic acetylated Tat by immunoprecipitated SIRT1 with or wi” value is listed as “The SIRT1-mediated deacetylation of Tat was dependent on NAD^+”.
